Assay results reported in ChEMBL document CHEMBL1134590, “Determination of the binding specificity of an integral membrane protein by saturation transfer difference NMR: RGD peptide ligands binding to integrin alphaIIbbeta3” (J Med Chem, 2001).
pIC50: −log10 of the molar value.

Target: Integrin alpha-IIb/beta-3 (Homo sapiens, UniProt P05106+P08514)
Experiment: Inhibition of integrin alphaIIb-beta3 binding
Assay type: protein-complex assay

Integrin alpha-IIb/beta-3, sequence (P05106 27-788 limits assumed): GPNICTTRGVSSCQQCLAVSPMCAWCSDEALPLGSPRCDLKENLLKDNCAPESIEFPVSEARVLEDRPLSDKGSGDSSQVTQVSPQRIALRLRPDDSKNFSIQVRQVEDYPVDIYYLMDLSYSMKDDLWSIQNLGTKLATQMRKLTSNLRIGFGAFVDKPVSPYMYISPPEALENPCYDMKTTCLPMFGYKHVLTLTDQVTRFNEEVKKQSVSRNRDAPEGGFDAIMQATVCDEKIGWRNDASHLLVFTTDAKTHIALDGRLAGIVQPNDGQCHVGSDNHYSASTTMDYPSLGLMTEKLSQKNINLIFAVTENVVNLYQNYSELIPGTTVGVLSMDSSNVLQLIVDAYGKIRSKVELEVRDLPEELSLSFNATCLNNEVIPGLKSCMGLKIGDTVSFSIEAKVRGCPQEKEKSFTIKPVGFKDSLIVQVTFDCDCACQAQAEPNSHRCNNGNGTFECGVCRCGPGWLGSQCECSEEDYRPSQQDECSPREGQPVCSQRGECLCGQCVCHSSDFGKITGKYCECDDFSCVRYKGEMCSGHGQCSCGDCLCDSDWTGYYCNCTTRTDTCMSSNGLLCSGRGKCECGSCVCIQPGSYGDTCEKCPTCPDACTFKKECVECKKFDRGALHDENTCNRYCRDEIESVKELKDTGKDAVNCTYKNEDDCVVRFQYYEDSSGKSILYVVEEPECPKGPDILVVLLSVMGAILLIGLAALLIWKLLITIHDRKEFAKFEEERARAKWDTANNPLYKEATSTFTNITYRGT
Integrin alpha-IIb/beta-3, sequence (P08514 32-887 limits assumed): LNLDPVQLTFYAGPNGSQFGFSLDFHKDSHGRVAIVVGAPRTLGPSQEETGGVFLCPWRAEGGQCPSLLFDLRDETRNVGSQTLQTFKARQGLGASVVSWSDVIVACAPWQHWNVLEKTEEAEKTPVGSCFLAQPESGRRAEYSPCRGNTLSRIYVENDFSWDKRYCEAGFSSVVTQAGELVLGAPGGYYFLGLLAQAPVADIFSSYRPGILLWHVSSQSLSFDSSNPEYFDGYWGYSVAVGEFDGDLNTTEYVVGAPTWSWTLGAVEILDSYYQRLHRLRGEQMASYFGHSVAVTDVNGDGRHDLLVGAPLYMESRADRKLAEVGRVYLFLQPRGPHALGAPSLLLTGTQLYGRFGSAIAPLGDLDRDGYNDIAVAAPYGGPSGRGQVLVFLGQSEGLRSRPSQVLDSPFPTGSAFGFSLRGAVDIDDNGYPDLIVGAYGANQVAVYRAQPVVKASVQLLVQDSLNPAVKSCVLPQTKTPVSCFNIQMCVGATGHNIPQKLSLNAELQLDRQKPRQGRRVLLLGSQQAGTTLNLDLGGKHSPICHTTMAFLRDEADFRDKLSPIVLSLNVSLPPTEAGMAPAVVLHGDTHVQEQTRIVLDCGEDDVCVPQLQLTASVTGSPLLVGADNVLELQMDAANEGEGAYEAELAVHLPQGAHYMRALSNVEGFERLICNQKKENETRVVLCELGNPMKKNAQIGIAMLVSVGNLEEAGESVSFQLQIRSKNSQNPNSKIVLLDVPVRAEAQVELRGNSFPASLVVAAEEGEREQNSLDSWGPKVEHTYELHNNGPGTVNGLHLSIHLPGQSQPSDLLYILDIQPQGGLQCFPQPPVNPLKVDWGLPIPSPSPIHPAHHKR
Integrin alpha-IIb/beta-3, sequence (P08514 891-1039 limits assumed): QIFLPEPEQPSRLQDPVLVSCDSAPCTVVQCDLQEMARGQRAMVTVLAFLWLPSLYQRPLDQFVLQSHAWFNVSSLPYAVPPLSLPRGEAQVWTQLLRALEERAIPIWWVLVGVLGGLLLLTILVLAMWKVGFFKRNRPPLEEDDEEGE

Structure (SMILES): N=C(N)NCCC[C@H](N)C(=O)NCC(=O)N[C@@H](CC(=O)O)C(=O)O
- pIC50: < 3.00
